The values that follow come from US5780604A, “11,12-cyclic phosphite or phosphate derivatives of erythromycin and related macrolides” (Abbott Laboratories, priority 1997, dated 1998).

The test system of data set [1] is gram-positive bacteria, mycoplasmas. The settings on record: background statement, U.S. Pat. No. 4,331,803; cited from earlier work.
The conditions of data set [2]: background statement; cited from earlier work.
For a further data set, the system named is Gram-negative bacteria. As to conditions: background statement; cited from earlier work.
For data set [3], the system named is Haemophilis Influenzae DILL AMP R. In kind it is cell-based. As to conditions: BHI agar, 35°-37° C., 20 to 24 hours; unit assumed. How it is done:
(§1) Representative compounds of the present invention were assayed in vitro for antibacterial activity as follows: Twelve petri dishes containing successive aqueous dilutions of the test compound mixed with 10 mL of sterilized Brain Heart Infusion (BHI) agar (Difco 0418-01-5) were prepared. Each plate was inoculated with 1:100 (or 1:10 for slow-growing strains, such as Micrococcus and Streptococcus) dilutions of up to 32 different microorganisms, using a Steers replicator block. […] In addition, a control plate, using BHI agar containing no test compound, was prepared and incubated at the beginning and end of each test.
(§2) An additional plate containing a compound having known susceptibility patterns for the organisms being tested and belonging to the same antibiotic class as the test compound was also prepared and incubated as a further control, as well as to provide test-to-test comparability.
(§3) After incubation, each plate was visually inspected. The minimum inhibitory concentration (MIC) was defined as the lowest concentration of drug yielding no growth, a slight haze, or sparsely isolated colonies on the inoculum spot as compared to the growth control.

Another data set concerns Escherichia coli JUHL. Kind of data set: In vitro antibacterial activity (MIC), agar dilution. It counts as cell-based. As to conditions: unit assumed. How it is done: as §1, §2, §3
Background: In agar dilution the substance is mixed into plates at graded concentrations.

In data set [4] the test system is Streptococcus pyogenes EES61. It counts as cell-based. The settings on record: BHI agar, 35°-37° C., 20 to 24 hours; unit assumed. How it is done: as §1, §2, §3
For data set [5], the system named is Staphylococcus aureus NCTC10649M. It counts as cell-based. As to conditions: BHI agar, 35°-37° C., 20 to 24 hours; unit assumed. How it is done: as §1, §2, §3
Data set [6] relates to Staphylococcus aureus CMX 553. In kind it is cell-based. The settings on record: BHI agar, 35°-37° C., 20 to 24 hours; unit assumed. How it is done:
as §1, §2, §3

For data set [7], the system named is Micrococcus luteus ATCC 9341. It counts as cell-based. As to conditions: BHI agar, 35°-37° C., 20 to 24 hours; unit assumed. How it is done: as §1, §2, §3
For data set [8], the system named is Staphylococcus epidermidis 3519. It counts as cell-based. The settings on record: BHI agar, 35°-37° C., 20 to 24 hours; unit assumed. How it is done:
as §1, §2, §3

In data set [9] the test system is Staphylococcus aureus CMX 642A. In kind it is cell-based. As to conditions: BHI agar, 35°-37° C., 20 to 24 hours; unit assumed. How it is done:
as §1, §2, §3

Data set [10] has as its system Streptococcus pyogenes PIU 2548. It counts as cell-based. The settings on record: BHI agar, 35°-37° C., 20 to 24 hours; unit assumed. Here is the method: as §1, §2, §3
Data set [11] has as its system Staphylococcus aureus ATCC 6538P. In kind it is cell-based. The settings on record: BHI agar, 35°-37° C., 20 to 24 hours; unit assumed. How it is done: as §1, §2, §3
Data set [12] concerns Micrococcus luteus ATCC 4698. It counts as cell-based. The settings on record: BHI agar, 35°-37° C., 20 to 24 hours; unit assumed. How it is done:
as §1, §2, §3

Data set [13] has as its system Streptococcus bovis A-5169. It counts as cell-based. As to conditions: BHI agar, 35°-37° C., 20 to 24 hours; unit assumed. Here is the method: as §1, §2, §3
Data set [14] deals with Enterococcus faecium ATCC 8043. It counts as cell-based. The settings on record: BHI agar, 35°-37° C., 20 to 24 hours; unit assumed. How it is done:
as §1, §2, §3

Data set [15] relates to Staphylococcus aureus A5177. In kind it is cell-based. As to conditions: BHI agar, 35°-37° C., 20 to 24 hours; unit assumed. Here is the method:
as §1, §2, §3

Data set [16] concerns Streptococcus agalactiae CMX 508. In kind it is cell-based. The settings on record: BHI agar, 35°-37° C., 20 to 24 hours; unit assumed. How it is done: as §1, §2, §3
In data set [17] the test system is Staphylococcus aureus 1775. Description: In vitro antibacterial activity (MIC), agar dilution. In kind it is cell-based. As to conditions: BHI agar, 35°-37° C., 20 to 24 hours; unit assumed. Here is the method:
as §1, §2, §3

In data set [18] the test system is Mycobacterium smegmatis ATCC 114. The data set is described as above. As to conditions: BHI agar, 35°-37° C., 20 to 24 hours; unit assumed. It counts as cell-based. How it is done: as §1, §2, §3
Data set [19] has as its system Streptococcus Pheumoniae GYR 1171. The data set is described as above. It counts as cell-based. The settings on record: BHI agar, 35°-37° C., 20 to 24 hours; unit assumed. Here is the method:
as §1, §2, §3

The next data set has as its system Escherichia coli DC-2. Described as above. In kind it is cell-based. As to conditions: BHI agar, 35°-37° C., 20 to 24 hours; unit assumed. Here is the method:
as §1, §2, §3

The subject of data set [20] is Nocardia Asteroides ATCC9970. Described as above. It counts as cell-based. As to conditions: BHI agar, 35°-37° C., 20 to 24 hours; unit assumed. How it is done:
as §1, §2, §3

Data set [21] has as its system Staphylococcus aureus A-5278. The description is as above. As to conditions: BHI agar, 35°-37° C., 20 to 24 hours; unit assumed. In kind it is cell-based. Here is the method:
as §1, §2, §3

The next data set concerns Candida albicans CCH 442. The data set is described as above. As to conditions: BHI agar, 35°-37° C., 20 to 24 hours; unit assumed. It counts as cell-based. Here is the method:
as §1, §2, §3

Data set [22] has as its system Streptococcus Pheumoniae 5649. Described as above. It counts as cell-based. As to conditions: BHI agar, 35°-37° C., 20 to 24 hours; unit assumed. How it is done: as §1, §2, §3
Another data set concerns Escherichia coli SS. The description is as above. It counts as cell-based. The settings on record: BHI agar, 35°-37° C., 20 to 24 hours; unit assumed. Here is the method:
as §1, §2, §3

In data set [23] the test system is Streptococcus pyogenes 930. The description is as above. It counts as cell-based. The settings on record: BHI agar, 35°-37° C., 20 to 24 hours; unit assumed. How it is done: as §1, §2, §3
Where [24] appears, read: BHI agar, 35°-37° C., 20 to 24 hours.

≈ marks a conversion by molar mass, not a printed value.

With `CC[C@H]1OC(=O)[C@H](C)[C@@H](O[C@H]2C[C@@](C)(OC)[C@@H](O)[C@H](C)O2)[C@H](C)[C@@H](O[C@@H]2O[C@H](C)C[C@H](N(C)C)[C@H]2O)[C@](C)(OC)C[C@@H](C)C(=O)[C@H](C)[C@@H](O)[C@]1(C)O` [6-O-methyl erythromycin A], the “antibacterial activity against many gram-positive bacteria, mycoplasmas, etc.” value in [1] was “desirable antibacterial activity”. The acid stability result in data set [2] is “poor acid stability”. In the data set on Gram-negative bacteria, the “activity against Gram-negative bacteria” value is on record as “only weak antimicrobial activity”.
As for `CC[C@H]1OC(=O)[C@H](C)[C@@H](O[C@H]2C[C@@](C)(OC)[C@@H](O)[C@H](C)O2)[C@H](C)[C@@H](O[C@@H]2O[C@H](C)C[C@H](N(C)C)[C@H]2O)[C@](C)(O)C[C@@H](C)C(=O)[C@H](C)[C@@H](O)[C@]1(C)O` [Ery. A, Erythromycin A], the MIC in data set [3] was 4 µg/mL (≈ 5.45 µM); in the data set on Escherichia coli JUHL, over 100 µg/mL. Besides, in the data set on Gram-negative bacteria, the “activity against Gram-negative bacteria” value is reported as “only weak activity”.
For `CC[C@H]1OC(=O)[C@H](C)C(=O)[C@H](C)[C@@H](O[C@@H]2O[C@H](C)C[C@H](N(C)C)[C@H]2O)[C@](C)(OC)C[C@@H](C)C(=O)[C@H](C)[C@H]2OP(OC)O[C@@]21C` (some centres unmarked) [Example 3], the MIC in data set [3] is over 128 µg/mL; in [4], 12.5 µg/mL (≈ 19.3 µM); in data set [5] it was 25 µg/mL (≈ 38.6 µM); in data set [6], 50 µg/mL (≈ 77.2 µM); in data set [7] it was 25 µg/mL (≈ 38.6 µM); in data set [8], 25 µg/mL (≈ 38.6 µM). Also, the MIC was determined as 25 µg/mL (≈ 38.6 µM) in data set [9]; 12.5 µg/mL (≈ 19.3 µM) in [10]; 25 µg/mL (≈ 38.6 µM) in data set [11]; 25 µg/mL (≈ 38.6 µM) in data set [12]; 12.5 µg/mL (≈ 19.3 µM) in data set [13]; 25 µg/mL (≈ 38.6 µM) in data set [14]. For the same molecule, the MIC in data set [15] was 25 µg/mL (≈ 38.6 µM); in [16], 12.5 µg/mL (≈ 19.3 µM); in the data set on Escherichia coli JUHL (setting [24]), over 100 µg/mL; in [17] it was over 100 µg/mL; in data set [18], 100 µg/mL (≈ 154 µM); in [19], 8 µg/mL (≈ 12.4 µM). The MIC in the data set with Escherichia coli DC-2 is over 100 µg/mL; in data set [20], 12.5 µg/mL (≈ 19.3 µM); in data set [21], over 100 µg/mL; against Candida albicans CCH 442, over 100 µg/mL; in data set [22] it was 16 µg/mL (≈ 24.7 µM); in the data set with Escherichia coli SS, 50 µg/mL (≈ 77.2 µM). Moreover, the MIC in [23] is over 100 µg/mL.
For the molecule `CCOP1O[C@@H]2[C@@H](C)C(=O)[C@H](C)C[C@@](C)(OC)[C@H](O[C@@H]3O[C@H](C)C[C@H](N(C)C)[C@H]3O)[C@@H](C)C(=O)[C@@H](C)C(=O)O[C@H](CC)[C@@]2(C)O1` (some centres unmarked) [Example 5], the MIC in data set [3] was over 128 µg/mL; in [4] it was 12.5 µg/mL (≈ 18.9 µM); in data set [5], 25 µg/mL (≈ 37.8 µM); in data set [6], 50 µg/mL (≈ 75.6 µM); in [7], 25 µg/mL (≈ 37.8 µM); in data set [8], 25 µg/mL (≈ 37.8 µM). Besides, the MIC in [9] was 50 µg/mL (≈ 75.6 µM); in [10], 12.5 µg/mL (≈ 18.9 µM); in [11], 25 µg/mL (≈ 37.8 µM); in data set [12], 50 µg/mL (≈ 75.6 µM); in data set [13], 12.5 µg/mL (≈ 18.9 µM); in [14] it was 25 µg/mL (≈ 37.8 µM). Besides, the MIC is 25 µg/mL (≈ 37.8 µM) in [15]; 12.5 µg/mL (≈ 18.9 µM) in data set [16]; over 100 µg/mL in the data set on Escherichia coli JUHL (setting [24]); over 100 µg/mL in [17]; 100 µg/mL (≈ 151 µM) in data set [18]; 4 µg/mL (≈ 6.04 µM) in [19]. The MIC against Escherichia coli DC-2 is over 100 µg/mL; in data set [20], 12.5 µg/mL (≈ 18.9 µM); in data set [21] it was over 100 µg/mL; against Candida albicans CCH 442, over 100 µg/mL; in data set [22], 16 µg/mL (≈ 24.2 µM); against Escherichia coli SS it was 50 µg/mL (≈ 75.6 µM). In [23], this molecule came in with an MIC of over 100 µg/mL.
